Test results published in patent US20170000804A1, “Methods and Compositions for Inhibiting Mitochondrial Trafficking” (The Wistar Institute of Anatomy and Biology, priority 2015, published 2017).

Tests used:
PC3 cells [1] = assay: Tumor cell invasion across Matrigel-coated Transwell inserts; type: cell-based, human; settings: for effect on tumor cell invasion in the presence of PI3K therapy: with PX-866, Matrigel, Antimycin A 30 μM, Oligomycin 2.5 μM, Rotenone 4 μM, CCCP 12.5 μM
Protocol: Tumor cell invasion: Experiments were carried out essentially as described (41). Briefly, 8 μm PET transwell migration chambers (Corning) were coated with 150 μl of 80 μg/ml Matrigel (Becton Dickinson). Tumor cells were seeded in duplicates onto the coated transwell filters at a density of 1.25×10^5 cells/well in media containing 2% FCS (FCIII, Hyclone) and media containing 20% FCS was placed in the lower chamber as chemoattractant. Cells were allowed to invade and adhere to the bottom of the plate stained in 0.5% crystal violet/methanol for 10 min, rinsed in tap water and analyzed by bright field microscopy. Digital images were batch imported into ImageJ, thresholded and analyzed with the Analyze particles function. For analysis of tumor cell invasion in 3D spheroids, tissue culture-treated 96-well plates were coated with 50 μl 1% DIFCO Agar Noble (Becton Dickinson). LN229 cells were seeded at 5,000 cells/well and allowed to form spheroids over 72 h. Spheroids were harvested, treated with PX-866 (0-10 µM) and placed in a collagen plug containing EMEM, FBS, L-Glutamine, sodium bicarbonate, and collagen type I (Gibco, 1.5 mg/ml). The collagen plug was allowed to set and 1 ml DMEM with 5% FBS was added to the top of the plug. Cell invasion was analyzed every 24 h and quantified using Image Pro Plus 7, as described^41.
Cell culture and drug treatment: Human GBM LN229, prostate adenocarcinoma PC3, lung carcinoma A549, and mouse fibroblasts NIH3T3 cells were obtained from the American Type Culture Collection (ATCC, Manassas, Va.), and maintained in culture according to the supplier's specifications. Conditioned media was prepared from exponentially growing cultures of NIH3T3 cells as previously described^41, in DMEM supplemented with 4.5 g/l D-glucose, sodium pyruvate, 10 mM HEPES and 10% FBS for 48 h. Where indicated, starvation was carried out in DMEM without glucose for 24 h. PI3K inhibitors were dissolved in DMSO at 10 mM and added to the culture media for 48 h at the following concentrations: AZD6482 at 10 μM, GCD0941 at 2 μM, BKM120 at 0.4 μM and PX-866 at 5 μM. mitoTEMPO was added to the culture media at 50-100 μM, NAC at […], Antimycin A at 30 μM, Oligomycin at 2.5 μM, Rotenone at 4 μM and CCCP at 12.5 μM. For invasions, the antioxidants, ROS scavengers, and ETC inhibitors were added to the top and bottom of the chambers at the moment of cell seeding.

PC3 cells [2] = assay: Mitochondrial localization by fluorescence microscopy; type: cell-based, human; settings: for effect on mitochondrial repositioning to the cortical cytoskeleton in the presence of PI3K therapy: with PX-866, Antimycin A 30 μM, Oligomycin 2.5 μM, Rotenone 4 μM, CCCP 12.5 μM
Protocol: Mitochondrial localization. After the indicated transfections or treatments, cells were stained with MitoTracker Red CMXRos (100 nM, 2 h) at 37° C. After fixation with 4% formalin in PBS for 15 min at room temperature, cells were permeabilized with 0.1% Triton X-100/PBS for 5 min, washed, and incubated 30 min with 1% BSA/0.3M glycine/PBS. F-actin was stained with phalloidin Alexa488 (1:1000 dilution) for 30 min at room temperature. Slides were washed and mounted in DAPI-containing Prolong Gold mounting medium (Invitrogen). At least 7 random fields were analyzed by fluorescence microscopy in a Nikon E600 microscope. Composite images were analyzed in Image J, for each cell two lamellipodia were measured to calculate infiltration index, defined as the radial distance from nucleus to furthest mitochondrial string, normalized to the radial distance from nucleus to cell border. In parallel, all cells on the 7 fields were scored into 3 categories, according to gross localization of mitochondria: polarized, pen-nuclear, and infiltrating. For cortical mitochondria quantification, a mask was manually created around the periphery of the cell based on the F-actin channel and subsequently applied to the mitochondria channel to measure intensity at the cortical region (FIG. 8H). The intensity was normalized to total mitochondria intensity per cell and background subtracted. A minimum of 20 cells were analyzed in each independent experiment to obtain mean values. For high resolution imaging of mitochondria in MFN1-depleted cells, slides were sequentially scanned for red, green, and blue fluorescence by a Leica SP5 confocal microscope with a 63× objective and a 20× digital zoom. Full cell z stacks (about 5-8 μm) were postprocessed in Leica Application Suite Advanced Fluorescence (LAS AF) to reduce noise by applying a median filter (two iterations, radius 3) and used to generate max projections.

[3] = tested on: patient-derived GBM neurospheres; assay: GBM neurosphere formation (number and size); type: cell-based, human; settings: Gamitrinib 5 μM plus PX-866 10 μM, 48 h
Protocol: GBM neurospheres: Fresh GBM specimens collected from consenting patients (Division of Neurosurgery, Fondazione IRCCS Ca′ Granda, Milan, Italy) were immediately processed for the isolation of stem cell-containing neurospheres. Briefly, tissues were enzymatically processed with the Tumor Dissociation Kit (Miltenyi Biotech) at 37° C. in combination with the gentleMACS™ Dissociators (Miltenyi Biotech) until achievement of single cell suspension. Then, dissociated GBM cells were grown as spheroid aggregates (neurospheres) as previously described^43 and using the NeuroCult NS-A Proliferation media (StemCell Technologies) supplemented with 20 ng/ml EGF and 10 ng/ml bFGF (Stem Cell Technologies) according to manufacturer's protocol. When pharmacological treatment was performed, neurospheres derived from five GBM patients were mechanically dissociated, stained with PKH26 (Sigma Aldrich) as described^44, and plated at a density of 1000 cells per well in 24-well plates. The intended use of the non-toxic dye PKH26 was for live cell identification and staining. […] During this interval, neurospheres were imaged every 24 h and their size (diameter) and number was assessed by direct counting using ImageJ software. PKH26 was monitored and recorded using the TRITC fluorescent filter. Experiments were performed in duplicates. […]

PC3 cells [4] = assay: Focal adhesion (FA) complexes and mitochondria dual labeling; type: cell-based, human; settings: non-toxic concentrations of Gamitrinib (1 μM), 48 h
Protocol: Focal adhesion (FA) complexes and mitochondria dual labeling. Coverslides were coated with fibronectin (10 μg/ml in PBS) overnight at 4° C., rinsed in PBS and equilibrated at 37° C. with 500 μl of 10% FBS/RPMI. Cells were treated as indicated, tripsinized, washed with 10% FBS/RPMI and plated on fibronectin-coated slides, in the presence of Mitotracker Red CMXRos (100 nM). After 5 h, cells were fixed with 10% formalin in PBS for 15 min at room temperature, permeabilized with 0.1% Triton X-100/PBS for 5 min, washed, and FAs were labeled with primary antibodies diluted in 1% BSA/0.3M glycine/PBS, overnight at 4° C. Either one of the following antibodies were used: rabbit anti-pY925-FAK (1:50, Cell Signaling), mouse anti-Paxillin (1:100, Upstate). Next, slides were washed, incubated with secondary antibodies (1:500, Alexa Fluor 488 conjugated) for 1 h at room temperature, washed and mounted in DAPI-containing Prolong Gold mounting medium (Invitrogen). Slides were sequentially scanned for red, green and blue fluorescence in a Leica SP5 confocal microscope with a 100× objective. Libraries were imported into LASLite and a 3 step z-stack centered at the plane of focal adhesions (±0.5 μm) were used to generate 3D max projections.

PC3 cells [5] = assay: Detection of mitochondrial superoxide in live cells (MitoSOX Red); type: cell-based, human; settings: PX-866 48 h with mitoTEMPO
Protocol: Detection of mitochondrial superoxide in live cells. The production of superoxide by mitochondria was visualized in fluorescence microscopy using the MitoSOX™ Red reagent. Briefly, 1.5×10^4 cells were grown on high optical quality 8 well μ-slides (Ibidi) and imaged with a 40× objective on a Nikon TE300 inverted time-lapse microscope equipped with a video system containing an Evolution QEi camera and a time-lapse video cassette recorder. The atmosphere was equilibrated to 37° C. and 5% CO2 in an incubation chamber. Phase contrast and TRITC (TRITC filter cube, excitation wavelength: 532-554 nm, emission wavelength: 570-613 nm) images were captured. To quantitate superoxide levels, files were imported into Image J, masks were manually created around the periphery of the cell based on the Phase image and subsequently applied to the TRITC channel to measure intensity. A minimum of 100 cells were analyzed in each independent experiment to obtain mean values.

[6] = tested on: patient-derived glioblastoma (GBM) organotypic cultures; assay: Kinome profiling (OpenArray real-time PCR) of GBM organotypic cultures; type: cell-based, human; settings: PX-866 10 μM for 48 h vs vehicle
Protocol: (§1) Organotypic cultures: Short-term organotypic cultures from primary patient samples were established as described^13. Briefly, precise thick tissue slices (300 μm) were obtained by vibratome serial cutting (VT1200, Leica Microsystems, Milan, Italy), and cultured in six-well plates on organotypic inserts (Millicell PICM ORG, Merck Millipore) for up to 48 h in 1 ml of Ham-F12 complete medium supplemented with vehicle (DMSO, 2.5 μl) or pan-PI3K inhibitor […] (10 μM). At the end of the experiment, one tissue slice per condition was formalin-fixed and paraffin-embedded, and further processed for morphological and immunohistochemical analysis. An additional tissue slice was embedded in OCT, and snap-frozen for molecular or immunofluorescence studies.
Kinome profiling and bioinformatics analysis. Transcriptional changes in the human kinome following PI3K inhibition were analyzed using OpenArray real-time PCR amplification. […] The ΔΔCt method was used to calculate fold changes between sample pairs with endogenous control Ct value calculated as average among 15 endogenous controls on the array: ALAS1, B2M, CASC3, G6PD, GAPDH, GUSB, HMBS, HPRT1, IPO8, POLR2A, PPIA, RPLP0, TFRC, UBE2D2, and YWHAZ. The p values for differential expression were calculated using fold changes of 15 endogenous controls as a null distribution.

GBM organotypic cultures = assay: Human phospho-RTK array, GBM organotypic cultures; type: cell-based; settings: primary organotypic cultures, PX-866 10 μM for 48 h
Protocol: (§2) The position and identity of phosphorylated proteins are indicated. M, markers.
as §1

GBM LN229 cells = assay: Human phospho-RTK array, LN229 cells; type: cell-based; settings: PX-866 10 μM for 48 h
Excerpt: as §2

Antimycin A
effect on tumor cell invasion in the presence of PI3K therapy (PC3 cells [1]): inhibited | effect on mitochondrial repositioning to the cortical cytoskeleton in the presence of PI3K therapy (PC3 cells [2]): inhibited

carbonyl cyanide m-chlorophenyl hydrazine [CCCP]
effect on tumor cell invasion in the presence of PI3K therapy (PC3 cells [1]): inhibited | effect on mitochondrial repositioning to the cortical cytoskeleton in the presence of PI3K therapy (PC3 cells [2]): inhibited

Gamitrinib
effect on increase in tumor cell invasion mediated by PI3K antagonists (PC3 cells [1]; Gamitrinib with PX-866 5 μM, Matrigel): abolished the increase | effect on expansion of primary GBM neurospheres mediated by PI3K antagonists [3]: abolished | mitochondrial distribution (polarized, perinuclear, infiltrating) with PI3K inhibitors (PC3 cells [2]; Gamitrinib in combination with PI3K inhibitors): preserved a polarized and perinuclear mitochondrial distribution | effect on trafficking of mitochondria to pFAK-containing FA complexes in response to PI3K antagonists (PC3 cells [4]): abolished

C=C(C)[C@H]1Cc2c(ccc3c2O[C@@H]2COc4cc(OC)c(OC)cc4[C@@H]2C3=O)O1 [Rotenone]
effect on tumor cell invasion in the presence of PI3K therapy (PC3 cells [1]): inhibited | effect on mitochondrial repositioning to the cortical cytoskeleton in the presence of PI3K therapy (PC3 cells [2]): inhibited

CC1(C)CC(NC(=O)C[P+](c2ccccc2)(c2ccccc2)c2ccccc2)CC(C)(C)N1[O] [mitoTEMPO]
effect on tumor cell invasion mediated by PI3K inhibitors (PC3 cells [1]; mitoTEMPO with PX-866, Matrigel): did not affect | effect on mitochondrial repositioning to the cortical cytoskeleton mediated by PI3K inhibitors (PC3 cells [2]; mitoTEMPO 50 μM with PI3K inhibitors): did not affect | effect on PI3K antagonist-induced mitochondrial superoxide production (PC3 cells [5]): abolished

C=CCN(/C=C1/C(=O)O[C@H](COC)[C@@]2(C)C1=C(O)C(=O)C1=C2[C@H](OC(C)=O)C[C@]2(C)C(=O)CC[C@@H]12)CC=C [PX-866]
transcriptional changes of growth factor receptor pathways (kinome) [6]: transcriptional upregulation of multiple growth factor receptor pathways | phosphorylation, i.e. activation of the GBM kinome (GBM organotypic cultures): widespread phosphorylation | phosphorylation, i.e. activation of the GBM kinome (GBM LN229 cells): widespread phosphorylation

CC(=O)N[C@@H](CS)C(=O)O [NAC, N-acetyl cysteine]
effect on PI3K therapy-mediated tumor cell invasion (PC3 cells [1]; increasing concentrations of NAC with PX-866 48 h, Matrigel): had no effect

CC[C@H]1/C=C/C=C/C[C@@H](C)[C@H](O)[C@@](C)(O)C(=O)[C@@H](C)[C@H](O)[C@@H](C)C(=O)[C@@H](C)[C@H](O)[C@@H](C)/C=C/C(=O)O[C@@H]2[C@H](C)[C@H](CC1)O[C@]1(CC[C@H](C)[C@H](C[C@@H](C)O)O1)[C@H]2C [Oligomycin]
effect on tumor cell invasion in the presence of PI3K therapy (PC3 cells [1]): inhibited | effect on mitochondrial repositioning to the cortical cytoskeleton in the presence of PI3K therapy (PC3 cells [2]): inhibited
